How the values were obtained:
[1] = target: T1, GST-RIPK2 fusion protein (human RIPK2 amino acids 1-310) (Homo sapiens, UniProt O43353); assay: RIPK2 binding competition assay (TR-FRET, Tracer 199); details: displacement of Tracer 199 (10 nM), 45 min at 22° C.
T1 construct: made in house; host or cells: baculovirus-infected Sf9 cells
From the text: The ability of selected compounds of Formulas (I) and (II) to inhibit the binding of an Alexa647-labelled ATP-competitive kinase inhibitor to a GST-RIPK2 fusion protein was quantified employing the TR-FRET-based RIPK2 binding competition assay as described in the following paragraphs.
Recombinant fusion protein of N-terminal Glutathione-S-Transferase (GST) and a fragment of human RIPK2 (amino acids 1-310 of accession number 043353), expressed in baculovirus infected Sf9 cells, purified via glutathione affinity chromatography, was used as GST-RIPK2 fusion protein. Tracer 199 from Life Technologies (catalogue no. PR9115B) was used as Alexa647-labelled ATP-competitive kinase inhibitor.
For the assay, 50 nL of a 100-fold concentrated solution of each test compound in DMSO was pipetted into either a black low volume 384-well microtiter plate or a black 1536-well microtiter plate (both Greiner Bio-One, Frickenhausen, Germany), 3 μL solution of Tracer 199 (16.7 nM=>final concentration in 5 μL assay volume is 10 nM) in aqueous assay buffer (25 mM Tris/HCl pH 7.5, 10 mM magnesium chloride (MgCl2), 5 mM β-glycerophosphate, 2.5 mM dithiothreitol (DTT), 0.5 mM ethylene glycol-bis(2-aminoethylether)-N,N,N′,N′-tetraacetic acid (EGTA), 0.5 mM sodium ortho-vanadate, 0.01% (w/v) bovine serum albumin (BSA), 0.005% (w/v) Pluronic F-127 (Sigma)) were added. Then the binding competition was started by the addition of 2 μL of a solution of the GST-RIPK2 fusion protein (2.5 nM=>final conc. in the 5 μL assay volume is 1 nM) and of Anti-GST-Tb (1.25 nM=>final conc. in the 5 μL assay volume is 0.5 nM), a Lumi4®—Tb cryptate-conjugated anti-GST antibody from PerkinElmer (catalogue no 61GSTTAH), in assay buffer.
The resulting mixture was incubated 45 min at 22° C. to allow the formation of a complex between the Tracer 199, the fusion protein and Anti-GST-Tb. Subsequently, the amount of this complex was evaluated by measurement of the resonance energy transfer from the Tb-cryptate to the Tracer 199. Therefore, the fluorescence emissions at 620 nm and 665 nm after excitation at 337 nm were measured in a TR-FRET reader, e.g. a Pherastar FS(BMG Labtechnologies, Offenburg, Germany) or a Viewlux (PerkinElmer). The ratio of the emissions at 665 nm and at 620 nm was taken as the measure of the amount of the complex. The data were normalized (assay reaction without inhibitor=0% activity, all other assay components but no GST-RIPK2 fusion protein=−100% activity).

[2] = target: T2, RIPK2 (KD)/XIAP (BIR2) (Homo sapiens, UniProt O43353); assay: RIPK2-XIAP binding competition PPI assay (TR-FRET); details: for Emax: 50 nM of GSK583 = -100% activity, read-out: PPI Amax; for IC50: GST-RIPK2 / His-XIAP (BIR2)-avi, 120 min at 23° C.
T2 construct: made in house; host or cells: baculovirus-infected Sf9 cells
Outline: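 After 2 h at 23 °C, complex formation was read as the 665/520 nm emission ratio (337 nm excitation), scaled between uninhibited reaction and 50 nM GSK583. The mix held 1 nM human RIPK2 kinase fragment-GST, 25 nM His-tagged XIAP BIR2 and Tb/XL665 antibodies in pH 7.5 Tris buffer containing vanadate and glycerophosphate.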

[3] = test system: THP1-Dual cells, NF-κB pathway (SEAP); assay: THP-1 Dual cell SEAP assay (L18-MDP stimulated); format: cell-based; details: Homo sapiens, 10 ng/mL L18-MDP, 20-24 h, SEAP readout, read-out: IFNγ THP1 IC50
Outline: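 IC50 values come from non-linear fits of % inhibition of SEAP, measured as QUANTI-Blue optical density (620-655 nm, 2 h) in media-blanked supernatants. These were taken from THP1-Dual cells treated with compound for 30 min before overnight exposure to 10 ng/mL L18-MDP final at 37 °C.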

T2 sequence (O43353 1-310): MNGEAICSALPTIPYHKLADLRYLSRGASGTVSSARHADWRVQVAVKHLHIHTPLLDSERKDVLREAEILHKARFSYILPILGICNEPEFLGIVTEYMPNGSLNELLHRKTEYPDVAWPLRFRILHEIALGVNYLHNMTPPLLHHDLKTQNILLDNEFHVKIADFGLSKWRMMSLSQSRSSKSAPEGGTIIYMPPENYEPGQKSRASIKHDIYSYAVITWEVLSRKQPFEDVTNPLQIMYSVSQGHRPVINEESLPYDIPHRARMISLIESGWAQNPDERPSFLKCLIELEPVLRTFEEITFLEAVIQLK
T1 sequence (O43353 1-310): as above

SMILES | IC50 [1] [nM] | Emax [2] [%] | IC50 [2] [nM] | IC50 [3] [nM]
COc1cc2ncc(-n3cc(C(=O)NCc4c(F)cc(F)cc4F)cn3)n2cc1S(=O)(=O)C(C)(C)C [Example 3, 1-(6-(tert-butylsulfonyl)-7-methoxyimidazo [1,2-a]pyridin-3-yl)-N-(2,4,6-trifluorobenzyl)-1H-pyrazole-4-carboxamide] | > 1000 | 30 to 55 | > 1000 | > 2500
COc1cc2ncc(-c3cc(C(=O)NCc4ccccc4Cl)n(C)n3)n2cc1S(=O)(=O)C(C)(C)C [Example 4, 3-(6-(tert-butylsulfonyl)-7-methoxyimidazo[1,2-a]pyridin-3-yl)-N-(2-chlorobenzyl)-1-methyl-1H-pyrazole-5-carboxamide] | < 200 | ≥ 80 | 10 to 100 | 500 to 2500
COc1cc2ncc(-c3cc(C(=O)N(C)C)n(C)n3)n2cc1S(=O)(=O)C(C)(C)C [Example 5, 3-(6-(tert-butylsulfonyl)-7-methoxyimidazo[1,2-a]pyridin-3-yl)-N,N,1-trimethyl-1H-pyrazole-5-carboxamide] | < 200 | ≤ 30 | > 1000 | > 2500
COc1cc2ncc(-c3cc(C(=O)NC4CCCCC4)n(C)n3)n2cc1S(=O)(=O)C(C)(C)C [Example 6, 3-(6-(tert-butylsulfonyl)-7-methoxyimidazo[1,2-a]pyridin-3-yl)-N-cyclohexyl-1-methyl-1H-pyrazole-5-carboxamide] | > 1000 | ≥ 80 | > 1000 | > 2500
COc1cc2ncc(-n3cc(NC(=O)Cc4ccccc4Cl)cn3)n2cc1S(=O)(=O)C(C)(C)C [Example 152, N-(1-(6-(tert-butylsulfonyl)-7-methoxyimidazo[1,2-a]pyridin-3-yl)-1H-pyrazol-4-yl)-2-(2-chlorophenyl)acetamide] | < 200 | ≥ 80 | 100 to 1000 | > 2500
COc1cc2ncc(-n3cc(NC(=O)OC(C)(C)C)cn3)n2cc1SC(C)(C)C [Example 153, tert-butyl (1-(6-(tert-butylthio)-7-methoxyimidazo[1,2-a]pyridin-3-yl)-1H-pyrazol-4-yl)carbamate] | 200 to 500 | ≥ 80 | > 1000 | > 2500
COc1cc2ncc(-n3cc(NC(=O)OC(C)(C)C)cn3)n2cc1S(=O)(=O)C(C)(C)C [Example 154, tert-butyl (1-(6-(tert-butylsulfonyl)-7-methoxyimidazo[1,2-a]pyridin-3-yl)-1H-pyrazol-4-yl)carbamate] | 500 to 1000 | ≥ 80 | > 1000 | > 2500
COc1cc2ncc(-n3cc(NC(C)=O)cn3)n2cc1S(=O)(=O)C(C)(C)C [Example 155, N-(1-(6-(tert-butylsulfonyl)-7-methoxyimidazo[1,2-a]pyridin-3-yl)-1H-pyrazol-4-yl)acetamide] | > 1000 | ≤ 30 | > 1000 | > 2500
COc1cc2ncc(-n3cc(NC(=O)Cc4cccc(F)c4Cl)cn3)n2cc1S(=O)(=O)C(C)(C)C [Example 156, N-(1-(6-(tert-butylsulfonyl)-7-methoxyimidazo[1,2-a]pyridin-3-yl)-1H-pyrazol-4-yl)-2-(2-chloro-3-fluorophenyl)acetamide] | 500 to 1000 | ≥ 80 | > 1000 | > 2500
COc1cc2ncc(-n3cc(NC(=O)Cc4cc(F)ccc4Cl)cn3)n2cc1S(=O)(=O)C(C)(C)C [Example 157, N-(1-(6-(tert-butylsulfonyl)-7-methoxyimidazo[1,2-a]pyridin-3-yl)-1H-pyrazol-4-yl)-2-(2-chloro-5-fluorophenyl)acetamide] | 500 to 1000 | ≥ 80 | > 1000 | > 2500
